From US9278982B2, “Targeting human thymidylate kinase induces DNA repair toxicity in malignant tumor cells” (NATIONAL YANG-MING UNIVERSITY, priority 2010, dated 2016)

Legend:
[1] = target: T1, purified human thymidylate kinase (Homo sapiens, UniProt P23919); experiment: NADH-coupled TMPK assay (kinetic parameters); format: biochemical; settings: for Ki: 10 min pre-incubation, average of three YMU1 concentrations
T1 construct: GST (N, cleaved yes); made in house; host or cells: E. coli JM109 (pGEX-2T-hTMPK)
T1 sequence (P23919 1-212): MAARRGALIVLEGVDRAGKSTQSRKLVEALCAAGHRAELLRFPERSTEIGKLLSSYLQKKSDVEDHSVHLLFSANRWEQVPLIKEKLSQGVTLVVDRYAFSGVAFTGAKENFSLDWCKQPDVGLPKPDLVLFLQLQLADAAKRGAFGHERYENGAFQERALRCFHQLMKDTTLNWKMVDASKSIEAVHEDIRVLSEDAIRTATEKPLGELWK
Description: The inhibitory mode of YMU1 was determined by pre-incubating different concentrations of YMU1 with purified hTMPK protein and measuring initial velocity using the conventional TMPK assay.
All reactions were performed in 96-well plates in an assay volume of 100 μl. The activity of hTMPK was measured at 25° C. using a modified NADH coupled colorimetric assay as described (Agarwal et al., 1978; Miyata et al., 2003; Ostermann et al., 2003), in which purified hTMPK was added to the buffer containing 100 mM Tris-HCl, pH 7.5, 100 mM KCl, 10 mM MgCl2, 0.5 mM phosphoenol pyruvate, 0.25 mM NADH, 5 units of lactate dehydrogenase, 4 units of pyruvate kinase, 1 mM ATP, and 200 μM dTMP. The change of NADH was measured by reading the absorbance at 340 nm. One unit of TMPK activity is defined as the conversion of 1 μmole of TMP to TDP per minute.

[2] = tested on: CL-1-0; experiment: Doxorubicin sensitization, MTS viability assay; format: cell-based, human; settings: doxorubicin sensitivity, YMU1 vs vehicle
Description: (§1) FIG. 16. In vitro and in vivo effect of YMU1 on doxorubicin sensitization. (A) A panel of cell lines were pre-treated with vehicle, YMU1 (compound 21), D6 (ethyl 4-(2-chloroacetyl)piperazine-1-carboxylate) or D7 (compound 28) for 3 days and were exposed to different concentration of doxorubicin for 4 h. […] The enhancement (fold) of doxorubicin sensitivity in each cell line was calculated. Data represent mean±s.d., n=3; each experiment was quadruplex. Inset indicates the IC50 value of doxorubicin in various cell lines. […] Following overnight culture, cells were refreshed with growth medium. After 14 days of culture, colonies were fixed, stained by crystal violet and counted. (C) HCT-116 p53^−/− cells were subcutaneously implanted in the right flank of Balb/c nude mice (each experimental group n=8). Arrow indicated the time of stopping drug treatment. The tumor volume was estimated as described in Methods of the Invention section. (D) After 2 weeks recovered from treatment, mice were sacrificed for tumor weight measurement. Data represent mean±s.e.m; **, P<0.01 by a two-tailed Student's t-test. (E) Ki 67 proliferation marker staining of tumor shown in left panel. Scale bar, 50 μm. (F) Model of doxorubicin sensitization by YMU1 in malignant cancer cells. Both R2/R1 and TMPK are recruited to the site of doxorubicin-induced double-strand breaks, where dATP, dGTP, dCTP, dTTP and dUTP are site-specific synthesized. Inhibition of TMPK decreases dTTP formation at DNA damage sites, causing futile DNA repair due to dUTP incorporation.
(§2) Next, various human cancer cell lines were treated with YMU1, D6 or D7 for 72 h to test the potential of TMPK inhibitor in doxorubicin sensitization. After exposure to different concentration of doxorubicin for 4 h, cells were refreshed for viability analysis after 2 days and the IC50 value for doxorubicin in each of the cell lines was determined (FIG. 16A and Table 2).
(§3) Cells plated into a 96-well plate (10^3 cells/well) were treated and cell viability was measured by MTS assay (Promega) (Cory et al., 1991). An annexin V-fluorescein isothiocyanate (FITC) apoptosis kit (Calbiochem) was used to detect apoptosis. The cell cycle analysis was performed by staining cells with propidium iodide (PI) for fluorescence-activated cell sorter (FACS) analysis with CellQuest software.

[3] = tested on: Capan1; experiment: Doxorubicin sensitization, MTS viability assay; format: cell-based, human; settings: doxorubicin sensitivity, YMU1 vs vehicle
Description: as §1, §2, §3

[4] = tested on: H1299; experiment: Doxorubicin sensitization, MTS viability assay; format: cell-based, human; settings: doxorubicin sensitivity, YMU1 vs vehicle
Description: as §1, §2, §3

[5] = tested on: H184B5F5/M10; experiment: Doxorubicin sensitization, MTS viability assay; format: cell-based, human; settings: doxorubicin sensitivity, YMU1 vs vehicle
Description: as §1, §2, §3

[6] = tested on: HCC1037; experiment: Doxorubicin sensitization, MTS viability assay; format: cell-based, human; settings: doxorubicin sensitivity, YMU1 vs vehicle
Description: as §1, §2, §3

[7] = tested on: HCT-116p53+/+; experiment: Doxorubicin sensitization, MTS viability assay; format: cell-based, human; settings: doxorubicin sensitivity, YMU1 vs vehicle
Description: as §1, §2, §3

[8] = tested on: HCT-116p53−/−; experiment: Doxorubicin sensitization, MTS viability assay; format: cell-based, human; settings: doxorubicin sensitivity, YMU1 vs vehicle
Description: as §1, §2, §3

[9] = tested on: HMEC; experiment: Doxorubicin sensitization, MTS viability assay; format: cell-based, human; settings: doxorubicin sensitivity, YMU1 vs vehicle
Description: as §1, §2, §3

[10] = tested on: HREC; experiment: Doxorubicin sensitization, MTS viability assay; format: cell-based, human; settings: doxorubicin sensitivity, YMU1 vs vehicle
Description: as §1, §2, §3

[11] = tested on: HT-29; experiment: Doxorubicin sensitization, MTS viability assay; format: cell-based, human; settings: doxorubicin sensitivity, YMU1 vs vehicle
Description: as §1, §2, §3

[12] = tested on: IMR-90; experiment: Doxorubicin sensitization, MTS viability assay; format: cell-based, human; settings: doxorubicin sensitivity, YMU1 vs vehicle
Description: as §1, §2, §3

[13] = tested on: MCF-10A; experiment: Doxorubicin sensitization, MTS viability assay; format: cell-based, human; settings: doxorubicin sensitivity, YMU1 vs vehicle
Description: as §1, §2, §3

[14] = tested on: MDA-MB231; experiment: Doxorubicin sensitization, MTS viability assay; format: cell-based, human
Description: as §1, §2, §3

[15] = tested on: MDA-MB468; experiment: Doxorubicin sensitization, MTS viability assay; format: cell-based, human; settings: doxorubicin sensitivity, YMU1 vs vehicle
Description: as §1, §2, §3

[16] = tested on: SaoS2; experiment: Doxorubicin sensitization, MTS viability assay; format: cell-based, human; settings: doxorubicin sensitivity, YMU1 vs vehicle
Description: as §1, §2, §3

[17] = tested on: U2OS; experiment: Doxorubicin sensitization, MTS viability assay; format: cell-based, human; settings: doxorubicin sensitivity, YMU1 vs vehicle
Description: as §1, §2, §3

[18] = tested on: panel of cell lines; experiment: Doxorubicin sensitization, MTS viability assay, summary over the panel of cell lines; format: cell-based, human
Description: as §1, §2
The ability of YMU1 to sensitize non-tumorigenic mammary cycling H184B5F5/M10, MCF10A, primary human mammary epithelial (HMEC) and primary renal epithelial (HREC) cells and IMR-90 embryonic lung fibroblasts to doxorubicin was much weaker.
as §3

SMILES: CCOC(=O)N1CCN(C(=O)Cn2sc3nc(C)cc(C)c3c2=O)CC1 [compound 21, Ethyl 4-(2-(4,6-dimethyl-3-oxoisothiazolo[5,4-b]pyridin-2(3H)-yl)acetyl) piperazine-1-carboxylate]
- Ki ([1]; ATP 1 mM, TMP varied 2~200 μM): 220 ± 30 nM
- Vmax ([1]; ATP varied, YMU1 0.25 μM): 212.0 ± 10.3 nmol/min/mg
- Vmax ([1]; ATP varied, YMU1 0.5 μM): 94.8 ± 6.9 nmol/min/mg
- Vmax ([1]; ATP varied, YMU1 1 μM): 55.7 ± 1.3 nmol/min/mg
- Ki ([1]; TMP 200 μM, ATP varied 5~1000 μM): 180 ± 60 nM
- Vmax ([1]; TMP varied, YMU1 0.125 μM): 258.9 ± 12.4 nmol/min/mg
- Vmax ([1]; TMP varied, YMU1 0.25 μM): 180.6 ± 11.8 nmol/min/mg
- Vmax ([1]; TMP varied, YMU1 0.5 μM): 91.8 ± 6.4 nmol/min/mg
- Enhancement fold [2]: 6.0 fold
- Enhancement fold [3]: 1.0 fold
- Enhancement fold [4]: 12.2 fold
- Enhancement fold [5]: 1.7 fold
- Enhancement fold [6]: 0.8 fold
- Enhancement fold [7]: 6.3 fold
- Enhancement fold [8]: 6.8 fold
- Enhancement fold [9]: 1.0 fold
- Enhancement fold [10]: 1.0 fold
- Enhancement fold [11]: 3.4 fold
- Enhancement fold [12]: 1.0 fold
- Enhancement fold [13]: 1.2 fold
- Enhancement fold ([14]; MDA-MB231, doxorubicin sensitivity, YMU1 vs vehicle): 31.0 fold
- enhancement on doxorubicin sensitization ([14]; MDA-MB231 cell treatment, compound at 2 μM): 30 fold
- Enhancement fold [15]: 27.8 fold
- Enhancement fold [16]: 35.1 fold
- Enhancement fold [17]: 4.0 fold
- ability to sensitize to doxorubicin ([18]; non-tumorigenic H184B5F5/M10, MCF10A, HMEC, HREC cells and IMR-90 fibroblasts): much weaker
- doxorubicin sensitization ([18]; two BRCA 1/2 deficient tumor cells defective in homologous recombination repair): not responsive
